Experimental data published in the supplement of paper PMC10307832.

Assays:
Experiment in all cases: relative viability (nuclei count vs DMSO), 5 days (fraction); higher = more cells survive
RERF-LC-KJ = test system: RERF-LC-KJ
Outline: (§1)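 Cells from lung cancer lines were seeded into 1536-well plates and, one day later, dosed by pin tool. Treatments were either a single drug or a fixed dose of an anchor drug with five library-drug doses (not always all listed) in √10 steps. After 5 days, nuclei were stained in a one-step fixation (final 0.05% Triton X-100, 1% formaldehyde, 1 ug/ml Hoechst) and counted on 4× images, and relative viability is the treated-to-vehicle nuclei ratio, as the median of duplicate plates.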

PC-14 = test system: PC-14
Outline: as §1

NCI-H2405 = test system: NCI-H2405
Outline: as §1

NCI-H1666 = test system: NCI-H1666
Outline: as §1

NCI-H23 = test system: NCI-H23
Outline: as §1

NCI-H2126 = test system: NCI-H2126
Outline: as §1

HCC-827 = test system: HCC-827
Outline: as §1

HCC-78 = test system: HCC-78
Outline: as §1

H3255 = test system: H3255
Outline: as §1

NCI-H650 = test system: NCI-H650
Outline: as §1

NCI-H520 = test system: NCI-H520
Outline: as §1

NCI-H661 = test system: NCI-H661
Outline: as §1

NCI-H2087 = test system: NCI-H2087
Outline: as §1

NCI-H647 = test system: NCI-H647
Outline: as §1

201T = test system: 201T
Outline: as §1

NCI-H1915 = test system: NCI-H1915
Outline: as §1

LCLC-97TM1 = test system: LCLC-97TM1
Outline: as §1

EPLC-272H = test system: EPLC-272H
Outline: as §1

LC-2-ad = test system: LC-2-ad
Outline: as §1

ChaGo-K-1 = test system: ChaGo-K-1
Outline: as §1

NCI-H2347 = test system: NCI-H2347
Outline: as §1

COR-L 105 = test system: COR-L 105
Outline: as §1

SMILES: COc1nc(C)cnc1NS(=O)(=O)c1cccnc1-c1ccc(-c2nnco2)cc1 [Zibotentan] + CC(=O)c1c(C)c2cnc(Nc3ccc(N4CCNCC4)cn3)nc2n(C2CCCC2)c1=O [Palbociclib] (partner 0.5 µM)
- relative viability (RERF-LC-KJ; first compound 0.08 µM): 1.1
- relative viability (RERF-LC-KJ; first compound 0.253 µM): 0.999
- relative viability (RERF-LC-KJ; first compound 0.8 µM): 1.08
- relative viability (RERF-LC-KJ; first compound 2.53 µM): 1.14
- relative viability (PC-14; first compound 0.08 µM): 0.68
- relative viability (PC-14; first compound 0.253 µM): 0.459
- relative viability (PC-14; first compound 0.8 µM): 0.607
- relative viability (PC-14; first compound 2.53 µM): 0.519
- relative viability (NCI-H2405; first compound 0.08 µM): 0.544
- relative viability (NCI-H2405; first compound 0.253 µM): 0.546
- relative viability (NCI-H2405; first compound 0.8 µM): 0.544
- relative viability (NCI-H2405; first compound 2.53 µM): 0.55
- relative viability (NCI-H1666; first compound 0.08 µM): 0.682
- relative viability (NCI-H1666; first compound 0.253 µM): 0.594
- relative viability (NCI-H1666; first compound 0.8 µM): 0.694
- relative viability (NCI-H1666; first compound 2.53 µM): 0.692
- relative viability (NCI-H23; first compound 0.08 µM): 0.586
- relative viability (NCI-H23; first compound 0.253 µM): 0.496
- relative viability (NCI-H23; first compound 0.8 µM): 0.53
- relative viability (NCI-H23; first compound 2.53 µM): 0.527
- relative viability (NCI-H2126; first compound 0.08 µM): 0.316
- relative viability (NCI-H2126; first compound 0.253 µM): 0.338
- relative viability (NCI-H2126; first compound 0.8 µM): 0.34
- relative viability (NCI-H2126; first compound 2.53 µM): 0.362
- relative viability (HCC-827; first compound 0.08 µM): 0.437
- relative viability (HCC-827; first compound 0.253 µM): 0.49
- relative viability (HCC-827; first compound 0.8 µM): 0.454
- relative viability (HCC-827; first compound 2.53 µM): 0.487
- relative viability (HCC-78; first compound 0.08 µM): 0.464
- relative viability (HCC-78; first compound 0.253 µM): 0.488
- relative viability (HCC-78; first compound 0.8 µM): 0.512
- relative viability (HCC-78; first compound 2.53 µM): 0.512
- relative viability (H3255; first compound 0.08 µM): 0.317
- relative viability (H3255; first compound 0.253 µM): 0.318
- relative viability (H3255; first compound 0.8 µM): 0.355
- relative viability (H3255; first compound 2.53 µM): 0.283
- relative viability (NCI-H650; first compound 0.08 µM): 0.339
- relative viability (NCI-H650; first compound 0.253 µM): 0.371
- relative viability (NCI-H650; first compound 0.8 µM): 0.351
- relative viability (NCI-H650; first compound 2.53 µM): 0.355
- relative viability (NCI-H520; first compound 0.08 µM): 0.219
- relative viability (NCI-H520; first compound 0.253 µM): 0.208
- relative viability (NCI-H520; first compound 0.8 µM): 0.208
- relative viability (NCI-H520; first compound 2.53 µM): 0.248
- relative viability (NCI-H661; first compound 0.08 µM): 0.421
- relative viability (NCI-H661; first compound 0.253 µM): 0.384
- relative viability (NCI-H661; first compound 0.8 µM): 0.455
- relative viability (NCI-H661; first compound 2.53 µM): 0.396
- relative viability (NCI-H2087; first compound 0.08 µM): 0.221
- relative viability (NCI-H2087; first compound 0.253 µM): 0.263
- relative viability (NCI-H2087; first compound 0.8 µM): 0.297
- relative viability (NCI-H2087; first compound 2.53 µM): 0.268
- relative viability (NCI-H647; first compound 0.08 µM): 0.471
- relative viability (NCI-H647; first compound 0.253 µM): 0.358
- relative viability (NCI-H647; first compound 0.8 µM): 0.361
- relative viability (NCI-H647; first compound 2.53 µM): 0.469
- relative viability (201T; first compound 0.08 µM): 0.357
- relative viability (201T; first compound 0.253 µM): 0.346
- relative viability (201T; first compound 0.8 µM): 0.359
- relative viability (201T; first compound 2.53 µM): 0.363
- relative viability (NCI-H1915; first compound 0.08 µM): 0.586
- relative viability (NCI-H1915; first compound 0.253 µM): 0.499
- relative viability (NCI-H1915; first compound 0.8 µM): 0.546
- relative viability (NCI-H1915; first compound 2.53 µM): 0.569
- relative viability (LCLC-97TM1; first compound 0.08 µM): 0.236
- relative viability (LCLC-97TM1; first compound 0.253 µM): 0.247
- relative viability (LCLC-97TM1; first compound 0.8 µM): 0.228
- relative viability (LCLC-97TM1; first compound 2.53 µM): 0.253
- relative viability (EPLC-272H; first compound 0.08 µM): 0.348
- relative viability (EPLC-272H; first compound 0.253 µM): 0.246
- relative viability (EPLC-272H; first compound 0.8 µM): 0.366
- relative viability (EPLC-272H; first compound 2.53 µM): 0.33
- relative viability (LC-2-ad; first compound 0.08 µM): 0.489
- relative viability (LC-2-ad; first compound 0.253 µM): 0.459
- relative viability (LC-2-ad; first compound 0.8 µM): 0.44
- relative viability (LC-2-ad; first compound 2.53 µM): 0.508
- relative viability (ChaGo-K-1; first compound 0.08 µM): 0.965
- relative viability (ChaGo-K-1; first compound 0.253 µM): 0.945
- relative viability (ChaGo-K-1; first compound 0.8 µM): 0.947
- relative viability (ChaGo-K-1; first compound 2.53 µM): 0.972
- relative viability (NCI-H2347; first compound 0.08 µM): 0.407
- relative viability (NCI-H2347; first compound 0.253 µM): 0.445
- relative viability (NCI-H2347; first compound 0.8 µM): 0.439
- relative viability (NCI-H2347; first compound 2.53 µM): 0.454
- relative viability (COR-L 105; first compound 0.08 µM): 0.381
- relative viability (COR-L 105; first compound 0.253 µM): 0.375
- relative viability (COR-L 105; first compound 0.8 µM): 0.373
- relative viability (COR-L 105; first compound 2.53 µM): 0.45
